Values after ≈ are worked out from the molar mass of the structure shown. Values joined by “and” are separate entries in the source; they are usually repeats but may differ in a detail not shown here. Equal entries are not always repeated.
Columns and labels:
[1] = tested on: Klebsiella pneumoniae; assay: Antibacterial activity against Klebsiella pneumoniae ATCC 10031 in presence of 140 mmol/L Na+ by broth microdilution method; format: functional
[2] = Selectivity index, ratio of CC50 for cytotoxicity against HEK293 cells to MIC for antibacterial activity against Klebsiella pneumoniae ATCC 14581; format: toxicity, cell-based; settings: human, read-out: Selectivity Index
[3] = Cytotoxicity against mouse NCTC clone 929 cells assessed as cell survival rate at 50 ug/ml by CCK-8 assay relative to control; format: toxicity, cell-based; settings: NCTC clone 929 (L929) cells, at 50 µg/mL, read-out: Activity
[4] = tested on: Klebsiella pneumoniae; assay: Antibacterial activity against Klebsiella pneumoniae ATCC 10031 assessed as reduction in bacterial load at 8 times MIC measured after 2 hrs by time kill assay relative to control; format: functional; parameters: scale not given: the % may be the effect or the level left
[5] = tested on: Staphylococcus aureus; assay: Antibacterial activity against methicillin resistant Staphylococcus aureus NCTC 10442 in presence of 4.5 mmol/L K+ by broth microdilution method; format: functional
[6] = tested on: Klebsiella pneumoniae; assay: Antibacterial activity against Klebsiella pneumoniae ATCC 14581 in presence of 1 mmol/L Mg2+ by broth microdilution method; format: functional
[7] = tested on: Staphylococcus aureus; assay: Antibacterial activity against methicillin resistant Staphylococcus aureus NCTC 10442 in presence of 19 umol/L Zn2+ by broth microdilution method; format: functional
[8] = Cytotoxicity against mouse NCTC clone 929 cells assessed as cell survival rate at 6.25 ug/ml by CCK-8 assay relative to control; format: toxicity, cell-based; settings: NCTC clone 929 (L929) cells, at 6.25 µg/mL, read-out: Activity
[9] = Selectivity index, ratio of CC50 for cytotoxicity against mouse NCTC clone 929 cells to MIC for antibacterial activity against Pseudomonas aeruginosa ATCC 9027; format: toxicity, cell-based; settings: read-out: Selectivity Index
[10] = tested on: Pseudomonas aeruginosa; assay: Antibacterial activity against Pseudomonas aeruginosa ATCC 9027 in presence of 19 umol/L Fe2+ by broth microdilution method; format: functional
[11] = tested on: Staphylococcus aureus; assay: Antibiofilm activity against 24 hrs preformed biofilm in Staphylococcus aureus ATCC 29213 assessed as reduction in biofilm viability at 6.25 ug/ml relative to control; format: functional; settings: dose 6.25 µg/ml
[12] = tested on: Klebsiella pneumoniae; assay: Antibacterial activity against Klebsiella pneumoniae ATCC 10031 by microbroth dilution assay; format: functional
[13] = tested on: Klebsiella pneumoniae; assay: Antibiofilm activity against 24 hrs preformed biofilm in Klebsiella pneumoniae ATCC 10031 assessed as reduction in biofilm viability at 25 ug/ml relative to control; format: functional; settings: dose 25 µg/ml
[14] = Cytotoxicity against HEK293 cells by CCK-8 assay; format: toxicity, cell-based; settings: human
[15] = Cytotoxicity against HEK293 cells assessed as cell survival rate at 50 ug/ml by CCK-8 assay relative to control; format: toxicity, cell-based; settings: human, at 50 µg/mL, read-out: Activity
[16] = tested on: Staphylococcus aureus; assay: Inhibition of biofilm formation in Staphylococcus aureus ATCC 29213 at 0.78 ug/ml by crystal violet staining assay relative to control; format: functional
[17] = tested on: Pseudomonas aeruginosa; assay: Antibacterial activity against Pseudomonas aeruginosa ATCC 9027 in presence of 19 umol/L Zn2+ by broth microdilution method; format: functional
[18] = Cytotoxicity against mouse NCTC clone 929 cells assessed as cell survival rate at 25 ug/ml by CCK-8 assay relative to control; format: toxicity, cell-based; settings: NCTC clone 929 (L929) cells, at 25 µg/mL, read-out: Activity
[19] = tested on: Pseudomonas aeruginosa; assay: Antibacterial activity against Pseudomonas aeruginosa ATCC 9027 in presence of 1.00 mmol/L Mg2+ by broth microdilution method; format: functional
[20] = Cytotoxicity against HEK293 cells assessed as cell survival rate at 3.125 ug/ml by CCK-8 assay relative to control; format: toxicity, cell-based; settings: human, at 3.125 µg/mL, read-out: Activity
[21] = tested on: Klebsiella pneumoniae; assay: Antibiofilm activity against 24 hrs preformed biofilm in Klebsiella pneumoniae ATCC 10031 assessed as reduction in biofilm viability at 3.125 ug/ml relative to control; format: functional; settings: dose 3.125 µg/ml
[22] = tested on: Staphylococcus aureus; assay: Antibacterial activity against Staphylococcus aureus ATCC 29213 in presence of 2.5 mmol/L Ca2+ by broth microdilution method; format: functional
[23] = tested on: Staphylococcus aureus; assay: Inhibition of biofilm formation in Staphylococcus aureus ATCC 29213 at 12.5 ug/ml by crystal violet staining assay relative to control; format: functional
[24] = tested on: Klebsiella pneumoniae; assay: Antibacterial activity against Klebsiella pneumoniae ATCC 14581 in presence of 2.5 mmol/L Ca2+ by broth microdilution method; format: functional
[25] = tested on: Klebsiella pneumoniae; assay: Antibacterial activity against Klebsiella pneumoniae ATCC 14581 in presence of 20 umol/L Fe3+ by broth microdilution method; format: functional
[26] = tested on: Staphylococcus aureus; assay: Antibacterial activity against methicillin resistant Staphylococcus aureus NCTC 10442 by microbroth dilution assay; format: functional
[27] = tested on: Staphylococcus aureus; assay: Antibacterial activity against methicillin resistant Staphylococcus aureus N315 in presence of 4.5 mmol/L K+ by broth microdilution method; format: functional
[28] = tested on: Staphylococcus aureus; assay: Antibiofilm activity against 24 hrs preformed biofilm in Staphylococcus aureus ATCC 29213 assessed as reduction in biofilm viability at 3.125 ug/ml relative to control; format: functional; settings: dose 3.125 µg/ml
[29] = tested on: Staphylococcus aureus; assay: Antibacterial activity against Staphylococcus aureus ATCC 29213 assessed as cell membrane disruption by SYTOX Green assay; format: functional, organism-based
[30] = tested on: Klebsiella pneumoniae; assay: Inhibition of biofilm formation in Klebsiella pneumoniae ATCC 10031 by crystal violet staining assay; format: functional, organism-based; settings: dose 0.78-25 µg/ml
[31] = tested on: Klebsiella pneumoniae; assay: Antibacterial activity against Klebsiella pneumoniae ATCC 10031 assessed as log reduction in bacterial load at 4 times MIC measured after 2 hrs by time kill assay; format: functional
[32] = tested on: Klebsiella pneumoniae; assay: Inhibition of biofilm formation in Klebsiella pneumoniae ATCC 10031 at 25 ug/ml by crystal violet staining assay relative to control; format: functional
[33] = tested on: Klebsiella pneumoniae; assay: Antibacterial activity against Klebsiella pneumoniae ATCC 14581 in presence of 19 umol/L Fe2+ by broth microdilution method; format: functional
[34] = tested on: Staphylococcus aureus; assay: Antibacterial activity against methicillin resistant Staphylococcus aureus N315 in presence of 19 umol/L Zn2+ by broth microdilution method; format: functional
[35] = Cytotoxicity against HEK293 cells assessed as cell survival rate at 12.5 ug/ml by CCK-8 assay relative to control; format: toxicity, cell-based; settings: human, at 12.5 µg/mL, read-out: Activity
[36] = tested on: Staphylococcus aureus; assay: Antibacterial activity against Staphylococcus aureus ATCC 29213 in presence of 1 mmol/L Mg2+ by broth microdilution method; format: functional
[37] = tested on: Escherichia coli; assay: Antibacterial activity against Escherichia coli ATCC 25922 in presence of 1 mmol/L Mg2+ by broth microdilution method; format: functional
[38] = tested on: Pseudomonas aeruginosa; assay: Antibacterial activity against Pseudomonas aeruginosa ATCC 9027 in presence of 2.50 mmol/L Ca2+ by broth microdilution method; format: functional
[39] = Cytotoxicity against mouse NCTC clone 929 cells by CCK-8 assay; format: toxicity, cell-based; settings: NCTC clone 929 (L929) cells
[40] = tested on: Klebsiella pneumoniae; assay: Inhibition of biofilm formation in Klebsiella pneumoniae ATCC 10031 at 12.5 ug/ml by crystal violet staining assay relative to control; format: functional
[41] = tested on: Staphylococcus aureus; assay: Antibacterial activity against Staphylococcus aureus ATCC 29213 in presence of 140 mmol/L Na+ by broth microdilution method; format: functional

With CCCCCCCN1c2ccccc2Sc2ccc(OCC(=O)N[C@@H](CCCNC(=N)N)C(=O)N[C@@H](CCCNC(=N)N)C(N)=O)cc21 the MIC [1] was 3.12 µg/mL, the selectivity ratio [2] was 8 and the viability at 50 ug/ml [3] was 68.1%. For the same compound, the Activity [4] was greater than 99.9%, the MIC [5] was 1.56 µg/mL and the MIC [6] was 3.12 µg/mL. For the same compound, the MIC [7] was 1.56 µg/mL, the viability at 6.25 ug/ml [8] was 91.2% and the selectivity ratio [9] was 8. The MIC [10] was 6.25 µg/mL, the Activity [11] was 15.93% and the MIC [12] was 3.12 µg/mL (≈ 4.58 µM). For the same compound, the Activity [13] was 4.13%, the CC50 [14] was > 50 µg/mL and 73.3 µM and the viability at 50 ug/ml [15] was 56%. The inhibition at 0.78 µg/mL [16] was 45%, the MIC [17] was 3.12 µg/mL and the viability at 25 ug/ml [18] was 70.8%. The MIC [19] was 6.25 µg/mL, the viability at 3.125 ug/ml [20] was 95.4% and the Activity [21] was 34.26%. It also gave an MIC [22] of 3.12 µg/mL, an inhibition at 12.5 µg/mL [23] of 96.7% and an MIC [24] of 3.12 µg/mL. For the same compound, the MIC [25] was 6.25 µg/mL, the MIC [26] was 1.56 µg/mL (≈ 2.28 µM) and the MIC [27] was 1.56 µg/mL. The Activity [28] was 27.75%, the Activity [29] was “Dose-Dependent Effect” and the inhibition [30] was “Dose-Dependent Effect”. The “log(activity)” value [31] was greater than 3, the inhibition at 25 µg/mL [32] was 96.6% and the MIC [33] was 3.12 µg/mL. The MIC [34] was 1.56 µg/mL, the viability at 12.5 ug/ml [35] was 80.6% and the MIC [36] was 3.12 µg/mL. The MIC [37] was 3.12 µg/mL, the MIC [38] was 6.25 µg/mL and the CC50 [39] was > 50 µg/mL and 73.3 µM. It also gave an inhibition at 12.5 µg/mL [40] of 93.9% and an MIC [41] of 1.56 µg/mL.

Source: ChEMBL document CHEMBL5634090, “Design of phenothiazine-based cationic amphiphilic derivatives incorporating arginine residues: Potential membrane-active broad-spectrum antimicrobials combating pathogenic bacteria in vitro and in vivo” (Eur J Med Chem, 2023)
